# In US11512057B2, “Unsaturated hydrocarbon pyrimidine thioether compounds and preparation method and application thereof” (Zhejiang University of Technology, priority 2018, dated 2022):
# Tests used:
# Format in all cases: in vivo
# [1] = tested on: powdery mildew of cucumber; experiment: Prevention experiment of powdery mildew of cucumber, living pot assay; details: 200 ppm; cucumber seedlings, about 10 days
# Method: The living pot assay method was adopted, that is, the sample of the test compound was dissolved with a small amount of DMF solvent (the kind of solvent such as acetone, methanol, DMF, etc., is selected according to the solvency of the sample, and the volume ratio of the solvent amount to the spray amount is equal to or less than 0.05), diluted with water containing 0.1% Tween 80, and formulated into the test solution with a desired concentration. Cucumber seedlings at leaf period with the same growth period was sprayed evenly with the prepared agent, and aired. Each concentration was one treatment, each treatment was repeated 3 times, a control agent and a water of blank control were set separately. The fresh powdery mildew spores on the leaves of cucumbers were washed and filtered with double gauze to prepare a suspension with a concentration of about 100,000 spores/mL. The samples were inoculated by spraying, the inoculated samples were moved into artificial climate, and relative humidity was maintained at 60-70%, the temperature was maintained at 23° C., after about 10 days, grading investigation was carried out according to the morbidity of the blank control, control effect was calculated according to disease index.
# [2] = tested on: armyworm; experiment: Activity test of armyworm, leaf-dipping method; details: after 3 days
# Method: A certain amount of the original drug was weighed by an analytical balance (0.0001 g), and dissolved in DMF containing 1% Tween-80 emulsifier to prepare a 1% mother liquor, which was then diluted with distilled water for later use.
# The insecticidal efficacy was evaluated by a leaf-dipping method with the armyworm as a target and a spray method with Tetranychus cinnabarinus and Aphis craccivora Koch as a target.
# Leaf-dipping method: the target for the test was the armyworm, and corn leaves in an appropriate amount were fully infiltrated in the prepared liquid, then dried naturally, placed in culture dishes with filter papers, inoculated with 3rd instar larvae of the armyworm at 10 heads/dish, and placed in an observation room and cultured at 24˜27° C. the results were investigated after 3 days. A brush was used to touch the insect bodies, and the unresponsive were regarded as dead insects.
# [3] = tested on: nymphs of Tetranychus cinnabarinus; experiment: Acaricidal comparison, nymph test
# Method: Nymph test: broad bean leaves were inoculated with 10 adult mites, and the adults were removed after laying eggs for 24 hours. The eggs were fed in insect rearing room, and when they hatched into nymphs, they were sprayed with a sprayer. After treatment, the leaves with the nymphs were placed in an observation room and cultured at 25-27° C., and the results were investigated after 48 hours. A brush was used to touch the insect bodies, and the unresponsive were regarded as the dead. The test concentrations of the compound on killing cinnabarin were 5, 2.5, 1.25, 0.625, 0.3125 mg/L.
# [4] = tested on: adults of Tetranychus cinnabarinus; experiment: Acaricidal comparison, spray method on adults of Tetranychus cinnabarinus
# Method: Spray method: the test target was Tetranychus cinnabarinus, that is, broad bean leaves inoculated with adults of Tetranychus cinnabarinus were placed under the spray treatment of Potter spray towers. After treatment, the Tetranychus cinnabarinus was placed in an observation room and cultured at 25˜27° C., and the results were investigated after 48 hours. The brush was used to touch the insect body, and the unresponsive were regarded as dead insects. The test concentrations of the compounds on killing cinnabarin were 50, 25, 12.5, 6.25, 3.125 mg/L.
# [5] = tested on: eggs of Tetranychus cinnabarinus; experiment: Acaricidal comparison, egg test
# Method: Egg test: each treated broad bean leave was inoculated with 10 adults of Tetranychus cinnabarinus, and the adults were removed after the eggs were laid for 24 hours. The leaves with eggs were sprayed under Potter spray towers. After treatment, the eggs of Tetranychus cinnabarinus were placed in an observation room and cultured at 25˜27° C. And the test was examined until the eggs under the blank treatment completely hatched out. The concentration of the compound that kills the eggs of Tetranychus cinnabarinus was 100, 50, 25, 12.5, 6.25 mg/L.
compound,measurement,setting,value
C=CCSc1nc(C)cc(OCc2ccccc2/C(=C\OC)C(=O)OC)n1 [Compound 1],effect of preventing powdery mildew,[1],100%
C=CCSc1nc(OCc2ccccc2/C(=C\OC)C(=O)OC)c(Cl)c(C(F)F)n1 [Compound 9],lethal rate on armyworm larvae,"[2]; 500 mg/L, 3rd instar larvae",100%
same,effect of preventing powdery mildew,[1],100%
C=C(Cl)CSc1nc(OCc2ccccc2/C(=C\OC)C(=O)OC)cc(C(F)F)n1 [Compound 34],lethal rate on armyworm larvae,"[2]; 500 mg/L, 3rd instar larvae",100%
same,effect of preventing powdery mildew,[1],100%
C=C(Cl)CSc1nc(OCc2ccccc2/C(=C\OC)C(=O)OC)cc(C(F)(F)F)n1 [Compound 35],lethal rate on armyworm larvae,"[2]; 500 mg/L, 3rd instar larvae",100%
same,effect of preventing powdery mildew,[1],100%
C=C(Cl)CSc1nc(CC)cc(OCc2ccccc2/C(=C\OC)C(=O)OC)n1 [Compound 36],lethal rate on armyworm larvae,"[2]; 500 mg/L, 3rd instar larvae",100%
same,effect of preventing powdery mildew,[1],100%
CO/C=C(/C(=O)OC)c1ccccc1COc1cc(C)nc(SC/C=C/Cl)n1 [Compound 49],effect of preventing powdery mildew,[1],100%
CO/C=C(/C(=O)OC)c1ccccc1COc1cc(C(F)F)nc(SC/C=C/Cl)n1 [Compound 50],effect of preventing powdery mildew,[1],100%
CO/C=C(/C(=O)OC)c1ccccc1COc1cc(C(F)(F)F)nc(SC/C=C/Cl)n1 [Compound 51],lethal rate on armyworm larvae,"[2]; 500 mg/L, 3rd instar larvae",100%
same,effect of preventing powdery mildew,[1],100%
CO/C=C(/C(=O)OC)c1ccccc1COc1cc(C2CC2)nc(SC/C=C/Cl)n1 [Compound 55],effect of preventing powdery mildew,[1],100%
CO/C=C(/C(=O)OC)c1ccccc1COc1cc(C(F)(F)F)nc(SCC=C(Cl)Cl)n1 [Compound 67],lethal rate on nymphs of Tetranychus cinnabarinus compared with fluacrypyrim,"[3]; 5, 2.5, 1.25, 0.625, 0.3125 mg/L",better than that of fluacrypyrim
same,lethal rate against adult mites compared with fluacrypyrim,"[4]; 50, 25, and 12.5 mg/L",better than that of fluacrypyrim
same,lethal rate on eggs of Tetranychus cinnabarinus compared with fluacrypyrim,"[5]; 100, 50, 25, 12.5, 6.25 mg/L",better than that of fluacrypyrim
same,lethal rate on armyworm larvae,"[2]; 500 mg/L, 3rd instar larvae",100%
same,effect of preventing powdery mildew,[1],100%
CCc1cc(OCc2ccccc2/C(=C\OC)C(=O)OC)nc(SCC=C(Cl)Cl)n1 [Compound 68],lethal rate on armyworm larvae,[2]; 100 mg/L,more than 80%
CO/C=C(/C(=O)OC)c1ccccc1COc1cc(C)nc(SCCC=C(F)F)n1 [Compound 113],lethal rate on armyworm larvae,"[2]; 500 mg/L, 3rd instar larvae",100%
same,effect of preventing powdery mildew,[1],100%
CO/C=C(/C(=O)OC)c1ccccc1COc1cc(C(F)F)nc(SCCC=C(F)F)n1 [Compound 114],effect of preventing powdery mildew,[1],100%
CCc1cc(OCc2ccccc2/C(=C\OC)C(=O)OC)nc(SCCC=C(F)F)n1 [Compound 116],lethal rate on armyworm larvae,"[2]; 500 mg/L, 3rd instar larvae",100%
CCCc1cc(OCc2ccccc2/C(=C\OC)C(=O)OC)nc(SCCC=C(F)F)n1 [Compound 117],lethal rate on armyworm larvae,"[2]; 500 mg/L, 3rd instar larvae",100%
CO/C=C(/C(=O)OC)c1ccccc1COc1cc(C(C)C)nc(SCCC=C(F)F)n1 [Compound 118],lethal rate on armyworm larvae,"[2]; 500 mg/L, 3rd instar larvae",100%
CO/C=C(/C(=O)OC)c1ccccc1COc1cc(C2CC2)nc(SCCC=C(F)F)n1 [Compound 119],lethal rate on armyworm larvae,"[2]; 500 mg/L, 3rd instar larvae",100%
CO/C=C(/C(=O)OC)c1ccccc1COc1nc(SCCC=C(F)F)nc(C)c1C [Compound 127],effect of preventing powdery mildew,[1],100%
CCCCc1c(C)nc(SCCC=C(F)F)nc1OCc1ccccc1/C(=C\OC)C(=O)OC [Compound 128],lethal rate on armyworm larvae,"[2]; 500 mg/L, 3rd instar larvae",100%
C=CCSc1nc(C)cc(OCc2ccccc2/C(=N\OC)C(=O)OC)n1 [Compound 145],lethal rate on armyworm larvae,"[2]; 500 mg/L, 3rd instar larvae",100%
C=CCSc1nc(OCc2ccccc2/C(=N\OC)C(=O)OC)cc(C(F)F)n1 [Compound 146],effect of preventing powdery mildew,[1],100%
C=CCSc1nc(OCc2ccccc2/C(=N\OC)C(=O)OC)cc(C(F)(F)F)n1 [Compound 147],lethal rate on armyworm larvae,"[2]; 500 mg/L, 3rd instar larvae",100%
C=C(Cl)CSc1nc(C)cc(OCc2ccccc2/C(=N\OC)C(=O)OC)n1 [Compound 177],effect of preventing powdery mildew,[1],100%
C=C(Cl)CSc1nc(OCc2ccccc2/C(=N\OC)C(=O)OC)cc(C(F)(F)F)n1 [Compound 179],lethal rate on armyworm larvae,"[2]; 500 mg/L, 3rd instar larvae",100%
same,effect of preventing powdery mildew,[1],100%
C=C(Cl)CSc1nc(CC)cc(OCc2ccccc2/C(=N\OC)C(=O)OC)n1 [Compound 180],lethal rate on armyworm larvae,"[2]; 500 mg/L, 3rd instar larvae",100%
same,effect of preventing powdery mildew,[1],100%
C=C(Cl)CSc1nc(C)c(C)c(OCc2ccccc2/C(=N\OC)C(=O)OC)n1 [Compound 191],effect of preventing powdery mildew,[1],100%
CO/N=C(/C(=O)OC)c1ccccc1COc1cc(C)nc(SC/C=C/Cl)n1 [Compound 193],lethal rate on armyworm larvae,"[2]; 500 mg/L, 3rd instar larvae",100%
same,effect of preventing powdery mildew,[1],100%
CO/N=C(/C(=O)OC)c1ccccc1COc1cc(C(F)F)nc(SC/C=C/Cl)n1 [Compound 194],lethal rate on armyworm larvae,"[2]; 500 mg/L, 3rd instar larvae",100%
same,effect of preventing powdery mildew,[1],100%
CO/N=C(/C(=O)OC)c1ccccc1COc1cc(C2CC2)nc(SC/C=C/Cl)n1 [Compound 199],lethal rate on armyworm larvae,"[2]; 500 mg/L, 3rd instar larvae",100%
same,effect of preventing powdery mildew,[1],100%
CO/N=C(/C(=O)OC)c1ccccc1COc1cc(C(F)(F)F)nc(SCC=C(Cl)Cl)n1 [Compound 211],lethal rate on armyworm larvae,"[2]; 500 mg/L, 3rd instar larvae",100%
CCCc1cc(OCc2ccccc2/C(=N\OC)C(=O)OC)nc(SCC=C(Cl)Cl)n1 [Compound 213],lethal rate on armyworm larvae,"[2]; 500 mg/L, 3rd instar larvae",100%
CO/N=C(/C(=O)OC)c1ccccc1COc1cc(C(C)C)nc(SCC=C(Cl)Cl)n1 [Compound 214],lethal rate on armyworm larvae,"[2]; 500 mg/L, 3rd instar larvae",100%
CO/N=C(/C(=O)OC)c1ccccc1COc1cc(C2CC2)nc(SCC=C(Cl)Cl)n1 [Compound 215],lethal rate on armyworm larvae,"[2]; 500 mg/L, 3rd instar larvae",100%
CCc1cc(OCc2ccccc2/C(=N\OC)C(=O)OC)nc(SCCC=C(F)F)n1 [Compound 260],lethal rate on armyworm larvae,"[2]; 500 mg/L, 3rd instar larvae",100%
CCCc1cc(OCc2ccccc2/C(=N\OC)C(=O)OC)nc(SCCC=C(F)F)n1 [Compound 261],lethal rate on armyworm larvae,"[2]; 500 mg/L, 3rd instar larvae",100%
CO/N=C(/C(=O)OC)c1ccccc1COc1nc(SCCC=C(F)F)nc(C)c1C [Compound 271],lethal rate on armyworm larvae,"[2]; 500 mg/L, 3rd instar larvae",100%
same,effect of preventing powdery mildew,[1],100%
COC(=O)N(OC)c1ccccc1COc1cc(C)nc(SC/C=C/Cl)n1 [Compound 337],lethal rate on armyworm larvae,"[2]; 500 mg/L, 3rd instar larvae",100%
COC(=O)N(OC)c1ccccc1COc1cc(C(F)F)nc(SC/C=C/Cl)n1 [Compound 338],lethal rate on armyworm larvae,"[2]; 500 mg/L, 3rd instar larvae",100%
COC(=O)N(OC)c1ccccc1COc1cc(C)nc(SCC=C(Cl)Cl)n1 [Compound 353],lethal rate on armyworm larvae,"[2]; 500 mg/L, 3rd instar larvae",100%
COC(=O)N(OC)c1ccccc1COc1cc(C(F)F)nc(SCC=C(Cl)Cl)n1 [Compound 354],lethal rate on armyworm larvae,"[2]; 500 mg/L, 3rd instar larvae",100%
CCc1cc(OCc2ccccc2N(OC)C(=O)OC)nc(SCC=C(Cl)Cl)n1 [Compound 356],lethal rate on armyworm larvae,"[2]; 500 mg/L, 3rd instar larvae",100%
CCCc1cc(OCc2ccccc2N(OC)C(=O)OC)nc(SCC=C(Cl)Cl)n1 [Compound 357],lethal rate on armyworm larvae,"[2]; 500 mg/L, 3rd instar larvae",100%
COC(=O)N(OC)c1ccccc1COc1cc(C2CC2)nc(SCC=C(Cl)Cl)n1 [Compound 359],lethal rate on armyworm larvae,"[2]; 500 mg/L, 3rd instar larvae",100%
CCCc1cc(OCc2ccccc2N(OC)C(=O)OC)nc(SCCC=C(F)F)n1 [Compound 405],lethal rate on armyworm larvae,"[2]; 500 mg/L, 3rd instar larvae",100%
COC(=O)N(OC)c1ccccc1COc1cc(C(C)C)nc(SCCC=C(F)F)n1 [Compound 406],lethal rate on armyworm larvae,"[2]; 500 mg/L, 3rd instar larvae",100%
CCc1cc(OCc2ccccc2C(=NOC)C(=O)NC)nc(SCCC=C(F)F)n1 [Compound 549],lethal rate on armyworm larvae,"[2]; 500 mg/L, 3rd instar larvae",100%
"CO/C=C(/C(=O)OC)c1ccccc1COc1cc(C(F)(F)F)nc(OC(C)C)n1 [Fluacrypyrim, fluacrypyrim]",mortality at 0.3125 µg/mL,"[3]; Tetranychus cinnabarinus, 48 h",7.74%
same,mortality at 0.625 µg/mL,"[3]; Tetranychus cinnabarinus, 48 h",17.1%
same,mortality at 1.25 µg/mL,"[3]; Tetranychus cinnabarinus, 48 h",28.8%
same,mortality at 2.5 µg/mL,"[3]; Tetranychus cinnabarinus, 48 h",55.3%
same,mortality at 5 µg/mL,"[3]; Tetranychus cinnabarinus, 48 h",82.5%
same,mortality at 3.125 µg/mL,"[4]; Tetranychus cinnabarinus, 48 h",39.5%
same,mortality at 6.25 µg/mL,"[4]; Tetranychus cinnabarinus, 48 h",64.6%
same,mortality at 12.5 µg/mL,"[4]; Tetranychus cinnabarinus, 48 h",70.6%
same,mortality at 25 µg/mL,"[4]; Tetranychus cinnabarinus, 48 h",75.9%
same,mortality at 50 µg/mL,"[4]; Tetranychus cinnabarinus, 48 h",88.9%
same,mortality at 6.25 µg/mL,[5]; Tetranychus cinnabarinus,10.8%
same,mortality at 12.5 µg/mL,[5]; Tetranychus cinnabarinus,13.6%
same,mortality at 25 µg/mL,[5]; Tetranychus cinnabarinus,32.2%
same,mortality at 50 µg/mL,[5]; Tetranychus cinnabarinus,54.9%
same,mortality at 100 µg/mL,[5]; Tetranychus cinnabarinus,75%
